Test results from a melting point compilation (Tetko et al.).

Structure (SMILES)	melting point [°C]
O=C(O)c1cccc(S(=O)(=O)N2CCc3sccc3C2)c1	207 to 209
CNS(=O)(=O)c1cc(OC)c(OC)cc1Br	156 to 158
Cc1cc(C=O)c(C)n1C1CCCCC1	75 to 77
CC(C)c1c(C(=O)O)nnn1-c1ccc(F)cc1F	158 to 160
CCOCCNC(N)=O	60 to 62
CNc1ncc2c(n1)-c1ccccc1SC2	123 to 125
O=C1OCCN1c1cccc([N+](=O)[O-])c1	135 to 137
CC1(C)NC(=O)C1(C)C	95 to 97
CCC(CO)N1CCNCC1 (stereo not drawn)	78 to 80
Nc1cc2c(cc1Cl)OCO2	90 to 92
OC(c1ccc(Cl)cc1)C1CCNCC1 (stereo not drawn)	139 to 141
Nc1nnc(Cc2ccc(Cl)cc2)o1	167 to 169
CCc1c(-c2ccncc2)n[nH]c1N	154 to 156
O=C(c1cccc(Cl)c1)N1CCNCC1	96 to 98
O=C(O)CCNC(=O)C1CC1	107 to 109
COc1ccc(S(N)(=O)=O)cc1OC	135 to 137
O=S(=O)(c1c[nH]c2ncccc12)N1CCNCC1	207 to 209
CCc1ccc(Nc2nnc(S)s2)cc1	151 to 153
Cc1cccc(OCCNc2ccc(F)cc2N)c1	76 to 78
Cc1n[nH]c(C)c1C=O	85 to 87
OCc1cnns1	34 to 36
COc1ccc(C(C)(C#N)NC(=O)C(F)(F)F)cc1OC (stereo not drawn)	145 to 147
Cc1cc(C(=O)O)c2c(C)noc2n1	233 to 235
CCOC(=O)c1c(N=C=S)sc(C)c1C	67 to 69

Structure (SMILES)	melting point [°C]
Cc1ccc(C(C)C(O)C(=O)O)cc1 (stereo not drawn)	111 to 113
COC(=O)CCS(=O)(=O)c1ccc(Br)cc1	75 to 77
Cc1cc(CO)nc(N2CCCCC2)n1	51 to 53
O=c1ccc2c([nH]1)CCC2	35 to 39
O=C(O)CCCS(=O)c1ccc(Br)cc1 (stereo not drawn)	121 to 123
CC(O)C1NC(=O)NC1=O (stereo not drawn)	179 to 181
O=C(O)c1occc1COc1ccccc1	129 to 131
CC1CCN(C(=O)c2ccc(N)cc2)CC1	118 to 120
Oc1ccccc1-c1ccn[nH]1	95 to 97
O=C(O)CNC(=O)C1CCCCC1	153 to 157
COC(=O)C(CC(C)C)NC(N)=O (stereo not drawn)	68 to 70
O=C1CCCc2nc(-c3ccncc3)sc21	159 to 161
NC(=O)c1c(NC(=O)CCC(=O)O)sc2c1CCC2	231 to 233
CC(=O)c1c(C)cc(C)c(CCl)c1C	74 to 76
CC(C)(C)c1ccc(S(=O)(=O)Cl)s1	47 to 49
O=C(O)CCSCc1nc2sc3c(c2c(=O)[nH]1)CCC3	227 to 229
NC(=O)CSc1ccccc1C(=O)O	210 to 212
N#Cc1ccc(S)c(F)c1	59 to 61
CC(=O)c1ccc(-n2ccnc2C)cc1	132 to 134
COc1cc2ncc(Cl)nc2cc1OC	149 to 151
CS(=O)(=O)C(Br)C(=O)c1ccccc1 (stereo not drawn)	90 to 92
CCNC(=O)c1cccc(NC(=O)CCl)c1	173 to 175
CN1CCCC1C(=O)O (stereo not drawn)	111 to 113
Cc1nc(-c2ccc(S(=O)(=O)Cl)cc2)co1	84 to 86

Structure (SMILES)	melting point [°C]
Cc1ccc2[nH]cc(C(=O)C(F)(F)F)c2c1	243 to 245
CCOc1ccc(S(=O)(=O)N(C)c2ccc(O)cc2)cc1	129 to 133
Nn1cnnc1-c1ccccc1	115 to 117
CN(C1CCCCC1)S(=O)(=O)c1cccc(N)c1	109 to 111
COC(=O)Nc1snc(C)c1C(=O)O	215 to 217
O=C(O)c1cc(OCC(F)(F)F)ccc1[N+](=O)[O-]	156 to 158
Cc1cc(C(F)(F)F)nc(O)n1	185 to 187
O=C(O)C1CCN(c2ccc(F)cc2)C1=O (stereo not drawn)	145 to 147
NNC(=O)NCC(F)(F)F	68 to 70
c1cc2[nH]ncc2cc1NC1CN2CCC1CC2 (stereo not drawn)	192 to 194
CCOC(=O)c1csc(CC#N)n1	77 to 79
CN(c1ccc(C(=O)O)cc1)C1CCCCC1	148 to 150
CC1(c2cccc(C#N)c2)NC(=O)NC1=O (stereo not drawn)	202 to 204
Cc1cc(N)c2cc(N)ccc2n1	212 to 214
CN(c1ccccc1C(=O)O)S(C)(=O)=O	146 to 148
O=C(O)C1CCCN1C(=O)c1ccc([N+](=O)[O-])s1 (stereo not drawn)	161 to 163
CC(Oc1ccc(Cl)cc1Br)C(=O)O (stereo not drawn)	122 to 124
CC(C)(C)OC(=O)N1CC(CC(=O)O)C1	109 to 111
CC(=O)c1sc(-c2ccccc2Br)nc1C	124 to 126
CC(Oc1ccc(-c2ccccc2)cc1)C(=O)O (stereo not drawn)	159 to 161
Cc1cccc2c(CC#N)c[nH]c12	109 to 111
O=C(O)CCCN1C(=O)CCC1=O	102 to 104

Results, then the compound that gave them:

melting point [°C]	Structure (SMILES)
129 to 131	Nc1ncn(C2CCCCC2)n1
63 to 65	CCOc1ccc(N)cc1Cl
154 to 156	O=C(O)CNC(=O)c1cc(F)cc(F)c1
114 to 116	N#Cc1cc(C(F)(F)F)ccc1-n1cncn1
140 to 142	O=C(CCl)c1ccc(NC(=O)c2ccccc2)cc1
83 to 85	CC(C)CN1CCOC(CNC(=O)CCl)C1 (stereo not drawn)
213 to 215	O=C(O)/C=C/c1cc2ccccc2o1
188 to 190	Cc1cccc2c(CC(=O)O)c[nH]c12
204 to 206	O=C(O)C(=Cc1ccc(Cl)cc1)c1ccc(F)cc1
55 to 57	CC(=O)c1ccc(F)cc1OC(F)F
170 to 180	O=C(O)CCNS(=O)(=O)c1ccc2ccccc2c1
99 to 101	OCc1cnc(-c2ccco2)o1
59 to 61	COc1ccc(C(C)=O)c(OCc2ccccc2)c1
188 to 190	CC1(c2ccc3c(c2)CCC3)NC(=O)NC1=O (stereo not drawn)
164 to 166	O=C(O)Cc1ccc([N+](=O)[O-])cc1Br
72 to 74	Cc1cc(-c2csc(N)n2)c(C)s1
45 to 49	CCOCCCNC(=O)CC#N
82 to 84	CC1CNc2ccccc2NC1
298 to 300	CN(C)c1ccc(/C=C/c2cc(C(=O)O)c3cc(Br)ccc3n2)cc1
249 to 251	CN(C)c1ccc(-n2ccnc2S)cc1
137 to 139	Nc1cccc(-c2cc[nH]n2)c1
93 to 95	N#Cc1ccc(Cl)cc1NCc1ccccc1
135 to 137	CC(=O)c1ccc(-c2ccc(Cl)c(Cl)c2)cc1
283 to 285	COc1ccc(C(=O)O)cc1S(N)(=O)=O
57 to 59	CC(=O)c1ccc(F)cc1N(C)C

melting point [°C]	Structure (SMILES)
86 to 88	c1ccc(-c2cncc(-c3ccccc3)n2)cc1
89 to 91	Clc1ccc2nc(Cl)nc(Cl)c2c1
85 to 87	FC(F)c1nc(Cl)c2ccccc2n1
188 to 190	O=C1CS/C(=C/C(=O)C2CC2)N1
346 to 348	CNc1cc(C(=O)O)c2ccccc2n1
96 to 98	O=C1CCCCN1c1ccc(Br)cc1F
109 to 111	Cc1csc(C2(O)C(=O)N(Cc3ccccc3)CC2C(=O)O)n1 (stereo not drawn)
57 to 59	O=C(c1ccccc1)C1CCOCC1
306 to 308	Cc1ccc(/C=C/c2cc(C(=O)O)c3cc(Br)ccc3n2)cc1
269 to 271	O=c1[nH]nc2ccc(Cl)nn12
195 to 197	O=C(O)COc1ccc(-c2ccccc2)cc1
347 to 349	NC(=O)c1ccc(C(=O)O)cn1
218 to 220	Oc1ccccc1-n1ccnc1
69 to 71	Cc1cc(N)ccc1C(=O)OC(C)(C)C
159 to 161	CCc1ccc(C(=O)O)cc1S(=O)(=O)N1CCOCC1
170 to 172	O=C(O)C1(c2ccc(O)cc2)CCOCC1
201 to 203	COc1ccc2c(c1)OCC(C(=O)O)=C2
184 to 186	O=C1Nc2ccc(S(=O)(=O)Cl)cc2C1=O
135 to 136	O=C(O)C1CCN(S(=O)(=O)c2cccc(C(F)(F)F)c2)CC1
164 to 166	C#CCN1C(=O)C(=O)c2cc(Br)ccc21
163 to 165	Cc1cnn(Cc2cc(C(=O)O)no2)c1
173 to 175	O=C(O)c1ccc(-c2ccccc2F)o1
139 to 141	CC(NC(=O)OC(C)(C)C)C(N)=NO (stereo not drawn)
225 to 227	O=c1[nH]c(-c2cccnc2)cs1
91 to 95	CCNc1ccc(C(=O)OCC)cc1[N+](=O)[O-]

melting point [°C]	Structure (SMILES)
269 to 271	O=C(O)c1cc(-c2ccco2)nc2onc(-c3ccco3)c12
213 to 215	NS(=O)(=O)c1ccc2c(c1)CC(C(=O)O)CO2 (stereo not drawn)
121 to 123	Cc1cccc(N2CCN(c3ccc(C#N)cn3)CC2)c1
129 to 131	CC(C)(C)OC(=O)N1CC(=O)NC(=O)C1
68 to 70	CCOC(=O)C(=O)CC(=O)c1ccc(Cl)cc1Cl
99 to 101	CC(C)Nc1ccc(C#N)cn1
157 to 159	COC(=O)c1cnc(NC2CC2)s1
172 to 174	CC(C)[C@H](NC(=O)c1c(F)cccc1F)C(=O)O
81 to 83	CCCN(CCC)C(=O)c1ccc(N)cc1
166 to 168	Nc1ccc(-c2nnc(O)o2)cc1
150 to 152	Cc1cc(C(=O)CC#N)c(C)n1CC(F)(F)F
68 to 70	CCOC(=O)c1oc2c(Br)cccc2c1C
96 to 98	COC1(C(=O)O)CCN(C(=O)OC(C)(C)C)CC1
203 to 205	Cc1ccc2c(c1)c(=O)n(C)c1nnc(CCl)n21
50 to 52	CC(N)c1ccc(-n2ccnc2)cc1 (stereo not drawn)
198 to 200	O=C(O)c1cccc(S(=O)(=O)N2CCOCC2)c1
113 to 115	O=C(CCl)NC(=O)OCc1ccccc1
83 to 85	O=C1c2ccccc2C(=O)N1CC1(CO)CCCC1
177 to 179	Cc1ccccc1-c1nn(-c2ccccc2)cc1C(=O)O
59 to 61	Cc1onc(CC(=O)O)c1C#N
318 to 320	O=C1NC(=O)C(Cc2ccccc2)(Cc2ccccc2)N1
189 to 191	Nc1ccc(-c2nc3cc(Br)ccc3s2)cc1
246 to 248	O=Cc1c(-c2ccccc2)n(-c2ccccc2)c2ccccc12
